In patent US20060069132A1, “Azolecarboxamide herbicides” (priority 2004, published 2006):

Experiments:
morningglory = experiment: Test C pre-/postemergence herbicide test; format: in vivo, Ipomoea coccinea; settings: Ipomoea, pre-emergence, read-out: Plant response rating, Morningglory
How it was run: (§1)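 Emerged plants at the 1- to 4-leaf stage (2–18 cm), or freshly planted seeds, received test chemicals in a non-phytotoxic solvent mixture with surfactant. Response was visually scored against controls after 12 to 14 days in the greenhouse, on a 0 (no effect) to 100 (complete control) scale.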

soybean = experiment: Test C pre-/postemergence herbicide test; format: in vivo, Glycine max; settings: Glycine max, pre-emergence, read-out: Plant response rating, Soybean
How it was run: as §1

[1] = test system: common (oilseed) sunflower; experiment: Test C pre-/postemergence herbicide test; format: in vivo, Helianthus annuus; settings: Helianthus annuus, pre-emergence, read-out: Plant response rating, Sunflower
How it was run: as §1

[2] = test system: smallflower umbrella sedge; experiment: Test C flooded paddy test; format: in vivo, Cyperus difformis; settings: Cyperus difformis
kochia = experiment: Test C pre-/postemergence herbicide test; format: in vivo, Kochia scoparia; settings: Bassia scoparia, pre-emergence, read-out: Plant response rating, Kochia
How it was run: as §1

giant foxtail = experiment: Test C pre-/postemergence herbicide test; format: in vivo, Setaria faberi; settings: Setaria faberi, pre-emergence, 312 h, read-out: Plant response rating, Foxtail, Giant
How it was run: as §1

goosegrass = experiment: Test C pre-/postemergence herbicide test; format: in vivo, Eleusine indica; settings: Eleusine indica, pre-emergence, 312 h, read-out: Plant response rating, Goosegrass
How it was run: as §1

bermudagrass = experiment: Test C pre-/postemergence herbicide test; format: in vivo, Cynodon dactylon; settings: Cynodon dactylon, pre-emergence, 312 h, read-out: Plant response rating, Bermudagrass
How it was run: as §1

[3] = 62 g ai/ha, preemergence, scale 0 to 100
[4] = 125 g ai/ha, scale 0 (no effect) to 100 (complete control), visual, 12 to 14 days
[5] = 500 g ai/ha, scale 0 to 100 (0 no effect, 100 complete control), visual, 12 to 14 days

Question: How did the pest or weed control at 62 g/ha (morningglory; [3]) turn out when `CCNC(=O)c1ccc(F)c(NC(=O)C2CN(C(C)(C)C)N=C2CC)c1` (stereo not drawn) [Compound 336, 1-(1,1-dimethylethyl)-3-ethyl-N-[5-[(ethylamino)carbonyl]-2-fluorophenyl]-4,5-dihydro-1H-pyrazole-4-carboxamide] was run?
Answer: 5%

Question: And the pest or weed control at 125 g/ha (morningglory; [4])?
Answer: 70%

Question: What about the pest or weed control at 250 g/ha (morningglory; 250 g ai/ha, scale 0-100) of the same compound?
Answer: 100%

Question: What about the pest or weed control at 500 g/ha (morningglory; [5]) of the same compound?
Answer: 100%

Question: And the plant injury at 62 g/ha (soybean; [3])?
Answer: 0%

Question: What about the plant injury at 250 g/ha (soybean; 250 g ai/ha, scale 0-100) of the same compound?
Answer: 50%

Question: What about the plant injury at 500 g/ha (soybean; [5]) of the same compound?
Answer: 100%

Question: What about the pest or weed control at 62 g/ha [1, 3] of the same compound?
Answer: 0%

Question: What about the pest or weed control at 250 g/ha ([1]; 250 g ai/ha, scale 0-100) of the same compound?
Answer: 30%

Question: And the pest or weed control at 500 g/ha [1, 5]?
Answer: 45%

Question: And the pest or weed control at 62 g/ha ([2]; 62 g ai/ha, scale 0 to 100, read-out: Sedge, Umbrella plant response rating)?
Answer: 25%

Question: What about the pest or weed control at 125 g/ha ([2]; 125 g ai/ha, scale 0 to 100 (0 no effect, 100 complete control), read-out: Sedge, Umbrella plant response rating) of the same compound?
Answer: 80%

Question: And the pest or weed control at 250 g/ha ([2]; 250 g ai/ha, scale of 0 to 100, 0 is no effect, 100 is complete control, read-out: Sedge, Umbrella plant response rating)?
Answer: 85%

Question: What about the pest or weed control at 500 g/ha ([2]; 500 g ai/ha, visual rating after 12 to 14 days, scale 0 to 100 (0 no effect, 100 complete control), read-out: Plant response rating, Sedge, Umbrella) of the same compound?
Answer: 90%

Question: What about the pest or weed control at 62 g/ha (kochia; [3]) of the same compound?
Answer: 5%

Question: And the pest or weed control at 125 g/ha (kochia; [4])?
Answer: 70%

Question: And the pest or weed control at 250 g/ha (kochia; 250 g ai/ha, scale 0-100)?
Answer: 100%

Question: And the pest or weed control at 500 g/ha (kochia; [5])?
Answer: 100%

Question: What about the pest or weed control at 62 g/ha (giant foxtail; [3]) of the same compound?
Answer: 0%

Question: What about the pest or weed control at 125 g/ha (giant foxtail; [4]) of the same compound?
Answer: 5%

Question: And the pest or weed control at 250 g/ha (giant foxtail; 250 g ai/ha, scale 0-100)?
Answer: 90%

Question: What about the pest or weed control at 500 g/ha (giant foxtail; [5]) of the same compound?
Answer: 90%

Question: And the pest or weed control at 62 g/ha (goosegrass; [3])?
Answer: 95%

Question: And the pest or weed control at 125 g/ha (goosegrass; [4])?
Answer: 100%

Question: What about the pest or weed control at 250 g/ha (goosegrass; 250 g ai/ha, scale 0-100) of the same compound?
Answer: 100%

Question: And the pest or weed control at 500 g/ha (goosegrass; [5])?
Answer: 100%

Question: And the pest or weed control at 62 g/ha (bermudagrass; 62 g ai/ha, preemergence, scale 0 to 100, 0 no effect, 100 complete control)?
Answer: 95%

Question: And the pest or weed control at 125 g/ha (bermudagrass; [4])?
Answer: 100%

Question: What about the pest or weed control at 250 g/ha (bermudagrass; 250 g ai/ha, scale 0-100) of the same compound?
Answer: 100%

Question: And the pest or weed control at 500 g/ha (bermudagrass; [5])?
Answer: 100%
